“Also recorded” adds a separate entry of the source.
Key:
[1] = cited from earlier work
[2] = cited from earlier work; remark: listed apart in the source
[3] = test system: patients with primary periodic paralysis; test: Phase III double-blind plus open-label extension study: cognition-related adverse events during dichlorphenamide treatment; type: in vivo, human
Experimental: Data were analyzed from a 9-week Phase III, randomized, double-blind, placebo-controlled phase and a 52-week open-label extension phase. The trial included two substudies: one in adults with hyperkalemic periodic paralysis and one in adults with hypokalemic periodic paralysis. The substudy data were pooled. Medical Dictionary for Regulatory Activities high-level group terms of deliria (including confusion) and mental impairment disorders were pooled for cognition-related events. Kaplan-Meier methods were used to estimate the percentages of patients with no occurrence of the adverse event over time.
Dose reductions were allowed for intolerable adverse events. […] Adverse events reported during dichlorphenamide exposure were summarized by double-blind treatment/open label treatment (placebo/dichlorphenamide or dichlorphenamide/dichlorphenamide) group.
The age range was 19 to 76 years.

[4] = n = 63, cognition-related adverse events
[5] = n = 63, considered by investigators at least possibly related to study drug
[6] = n = 63, listed as dichlorphenamide

NS(=O)(=O)c1cc(Cl)c(Cl)c(S(N)(=O)=O)c1 [Dichlorphenamide, 4,5-dichloro-1,3-benzenedisulfonamide]
Solubility in dilute solutions of sodium carbonate and sodium hydroxide ([1]; dilute sodium carbonate and sodium hydroxide solutions): soluble
Solubility in water ([1]; water): very slightly soluble
Stability of dilute alkaline solutions ([2]; room temperature): stable
Storage stability ([2]; storage): at least 36 months
Intensity of cognition-related adverse events (in words) ([3]; 61-week study): Most cognition-related adverse events were mild in intensity; also recorded: mild or moderate in intensity
Discontinuation due to cognition-related adverse event, patients % ([3]; n = 63): (6.3) %
Discontinuation due to cognition-related adverse event, patients n ([3]; n = 63): 4 patients
Resolution of last cognition-related adverse event: Resolved, patients % ([3]; n = 63): (17.5) %
Resolution of last cognition-related adverse event: Resolved, patients n ([3]; n = 63): 11 patients
Resolution of last cognition-related adverse event: Under treatment/observation, patients % ([3]; n = 63): (7.9) %
Resolution of last cognition-related adverse event: Under treatment/observation, patients n ([3]; n = 63): 5 patients
Any cognition-related adverse event, patients % ([3]; n = 63, 61-week study duration): (25.4) %
Any cognition-related adverse event, patients n ([3]; n = 63, 61-week study duration, pooled hyper/hypokalemic periodic paralysis): 16 patients
Any cognition-related adverse event, patients % ([3]; n = 63, 61-week study duration, listed as dichlorphenamide): 25.4%
Adverse event intensity: Mild, patients % [3, 4]: (14.3) %
Adverse event intensity: Mild, patients n [3, 4]: 9 patients
Adverse event intensity: Moderate, patients % [3, 4]: (7.9) %
Adverse event intensity: Moderate, patients n [3, 4]: 5 patients
Adverse event intensity: Severe, patients % [3, 4]: (3.2) %
Adverse event intensity: Severe, patients n [3, 4]: 2 patients
Any drug-related cognition-related adverse event, patients % [3, 5]: (25.4) %
Any drug-related cognition-related adverse event, patients n [3, 5]: 16 patients
Discontinuation due to cognition-related adverse event, patients % [3, 6]: 6.3%
Discontinuation due to cognition-related adverse event, patients n [3, 6]: Four
Patients with cognition-related adverse event who had the dose of dichlorphenamide reduced, % ([3]; of 16 patients with cognition-related adverse event): 37.5%
Outcome of cognition-related adverse event after dose reduction ([3]; six patients with reduced dose): resolved in all six cases; also recorded: Reduced doses frequently resolved these adverse events
Onset of cognition-related adverse events ([3]; time from start of dichlorphenamide treatment): during the first four weeks; also recorded: within the first month of therapy

From US20200230084A1 (Strongbridge Dublin Limited, priority 2019, published 2020)
